# According to patent publication US12459922B2 (Gilead Sciences, Inc., priority 2022, dated 2025):
# pEC50: −log10 of the molar value.
# System: endogenous cellular STAT1 (phosphorylated at Tyr701) in NCI-H1373 cells
# Test: Phospho-STAT1 (Tyr701) LANCE Ultra TR-FRET Detection Assay
# Assay type: cell-based
# Settings: 48 hours, phospho-STAT1 (Tyr701) induction, read-out: NH1373 pSTAT1 EC50
# Method: Phospho-STAT1 (Tyr701 LANCE Ultra TR-FRET Detection Assay
# d. LANCE Ultra phospho-STAT1 (Tyr701) kits are designed for the detection of phosphorylated STAT1 in cell lysates using a simple, homogeneous LANCE Ultra sandwich assay (Cat. #TRF4028M). This assay is intended for assessing compound induction of endogenous levels of cellular STAT1 (phosphorylated at Tyr701) in NCI-H1373 cells. The NCI-H1373 cells are cultured in RPMI 1640 media containing 10% heat inactivated FBS, GlutaMAX, 1% Penicillin-Streptomycin. An Echo acoustic liquid handler is used to transfer 60 nanoliters of compound dilutions using the Echo Qualified, 384-well polypropylene microplate clear flat bottom source plates into a Greiner (#781080) cell culture microplate. NCI-H1373 cells are seeded into these compound-spotted culture plates at 30,000 cells/well in a 60 uL volume in growth media. The plates are incubated in a 5% CO2 humidified incubator at 37° C. for 48 hours. […] After spinning the plate down at 300 rpm for 1 min, the plate is read on an EnVision plate reader set up for Eu3+ Cryptate and fluorescence emission is measured at two different wavelengths (665 nm and 620 nm). The HTRF ratio is then calculated […] for each well to determine the amount of pSTAT1 in the cell lysate, and the data is then normalized to 10 uM GS-1154611 positive and DMSO negative controls.
row,pEC50,Structure (SMILES)
1,8.36,"C[C@@H](CCCn1ccc2cc(-c3ncc(C(F)(F)F)c(N)n3)c(F)cc2c1=O)Nc1cn[nH]c(=O)c1C(F)(F)F [Example 100, 6-[4-amino-5-(trifluoromethyl)pyrimidin-2-yl]-7-fluoro-2-[(4S)-4-[[6-oxo-5-(trifluoromethyl)-1H-pyridazin-4-yl]amino]pentyl]isoquinolin-1-one]"

# Same assay, conditions: Homo sapiens, NCI-H1373, 48 h, phospho-STAT1 (Tyr701) induction, read-out: NH1373 pSTAT1 EC50
row,pEC50,Structure (SMILES)
1,7.27,"C[C@@H](CCCn1ccc2cc(-c3ccc(C(F)(F)CO)cn3)c(F)cc2c1=O)Nc1cn[nH]c(=O)c1C(F)(F)F [Example 75, 6-[5-(1,1-difluoro-2-hydroxy-ethyl)-2-pyridyl]-7-fluoro-2-[(4S)-4-[[6-oxo-5-(trifluoromethyl)-1H-pyridazin-4-yl]amino]pentyl]isoquinolin-1-one]"
2,7.87,"Cc1cnc(-c2cc3ccn(CCC[C@H](C)Nc4cn[nH]c(=O)c4C(F)(F)F)c(=O)c3c(F)c2F)nc1N [Example 77, (S)-6-(4-amino-5-methylpyrimidin-2-yl)-7,8-difluoro-2-(4-((6-oxo-5-(trifluoromethyl)-1,6-dihydropyridazin-4-yl)amino)pentyl)isoquinolin-1(2H)-one]"
3,6.50,"Cc1cnc(-c2cc3ncn(CCC[C@H](C)Nc4cn[nH]c(=O)c4C(F)(F)F)c(=O)c3cc2F)nc1N [Example 78, (S)-7-(4-amino-5-methylpyrimidin-2-yl)-6-fluoro-3-(4-((6-oxo-5-(trifluoromethyl)-1,6-dihydropyridazin-4-yl)amino)pentyl)quinazolin-4(3H)-one]"
4,5.82,"Cc1cnc(N)nc1-c1cc2ncn(CCC[C@H](C)Nc3cn[nH]c(=O)c3C(F)(F)F)c(=O)c2cc1F [Example 79, (S)-7-(2-amino-5-methylpyrimidin-4-yl)-6-fluoro-3-(4-((6-oxo-5-(trifluoromethyl)-1,6-dihydropyridazin-4-yl)amino)pentyl)quinazolin-4(3H)-one]"
5,6.32,"Cc1cnc(N)nc1-c1cc2ccn(CCC[C@H](C)Nc3cn[nH]c(=O)c3C(F)(F)F)c(=O)c2c(F)c1F [Example 80, (S)-6-(2-amino-5-methylpyrimidin-4-yl)-7,8-difluoro-2-(4-((6-oxo-5-(trifluoromethyl)-1,6-dihydropyridazin-4-yl)amino)pentyl)isoquinolin-1(2H)-one]"
6,8.37,"C[C@@H](CCCn1ccc2cc(-c3ncc(C(F)(F)F)c(N)n3)c(F)c(F)c2c1=O)Nc1cn[nH]c(=O)c1C(F)(F)F [Example 81, (S)-6-(4-amino-5-(trifluoromethyl)pyrimidin-2-yl)-7,8-difluoro-2-(4-((6-oxo-5-(trifluoromethyl)-1,6-dihydropyridazin-4-yl)amino)pentyl)isoquinolin-1(2H)-one]"
7,7.20,"C[C@@H](CCCn1cnc2cc(-c3ncc(C(F)F)cn3)c(F)cc2c1=O)Nc1cn[nH]c(=O)c1C(F)(F)F [Example 82, (S)-7-(5-(difluoromethyl)pyrimidin-2-yl)-6-fluoro-3-(4-((6-oxo-5-(trifluoromethyl)-1,6-dihydropyridazin-4-yl)amino)pentyl)quinazolin-4(3H)-one]"
8,7.24,"C[C@@H](CCCn1cnc2cc(-c3ncc(C4CC4)cn3)c(F)cc2c1=O)Nc1cn[nH]c(=O)c1C(F)(F)F [Example 83, (S)-7-(5-cyclopropylpyrimidin-2-yl)-6-fluoro-3-(4-((6-oxo-5-(trifluoromethyl)-1,6-dihydropyridazin-4-yl)amino)pentyl)quinazolin-4(3H)-one]"
9,6.58,"C[C@@H](CCCn1ccc2cc(-c3ncc(S(C)(=O)=O)cn3)c(F)cc2c1=O)Nc1cn[nH]c(=O)c1C(F)(F)F [Example 84, (S)-7-fluoro-6-(5-(methylsulfonyl)pyrimidin-2-yl)-2-(4-((6-oxo-5-(trifluoromethyl)-1,6-dihydropyridazin-4-yl)amino)pentyl)isoquinolin-1(2H)-one]"
10,6.95,"O=c1[nH]ncc(NCCCCn2ccc3cc(-c4ncc(C(F)(F)F)cn4)c(F)c(F)c3c2=O)c1C(F)(F)F [Example 85, 7,8-difluoro-2-(4-((6-oxo-5-(trifluoromethyl)-1,6-dihydropyridazin-4-yl)amino)butyl)-6-(5-(trifluoromethyl)pyrimidin-2-yl)isoquinolin-1(2H)-one]"
11,7.06,"O=c1[nH]ncc(N[C@@H](CO)CCCn2ccc3cc(-c4ncc(C(F)(F)F)cn4)c(F)cc3c2=O)c1C(F)(F)F [Example 88, 7-fluoro-2-[(4R)-5-hydroxy-4-[[6-oxo-5-(trifluoromethyl)-1H-pyridazin-4-yl]amino]pentyl]-6-[5-(trifluoromethyl)pyrimidin-2-yl]isoquinolin-1-one]"
12,7.39,"C[C@@H](CC(F)(F)Cn1ccc2cc(-c3ncc(C(F)(F)F)cn3)c(F)cc2c1=O)Nc1cn[nH]c(=O)c1C(F)(F)F [Example 89, 2-[(4S)-2,2-difluoro-4-[[6-oxo-5-(trifluoromethyl)-1H-pyridazin-4-yl]amino]pentyl]-7-fluoro-6-[5-(trifluoromethyl)pyrimidin-2-yl]isoquinolin-1-one]"
13,7.28,"C[C@@H](CC(=O)Cn1ccc2cc(-c3ncc(C(F)(F)F)cn3)c(F)cc2c1=O)Nc1cn[nH]c(=O)c1C(F)(F)F [Example 90, 7-fluoro-2-[(4S)-2-oxo-4-[[6-oxo-5-(trifluoromethyl)-1H-pyridazin-4-yl]amino]pentyl]-6-[5-(trifluoromethyl)pyrimidin-2-yl]isoquinolin-1-one]"
14,6.54,"O=c1[nH]ncc(Nc2cccc(Cn3ccc4cc(-c5ncc(C(F)(F)F)cn5)c(F)cc4c3=O)c2)c1C(F)(F)F [Example 91, 7-fluoro-2-[[3-[[6-oxo-5-(trifluoromethyl)-1H-pyridazin-4-yl]amino]phenyl]methyl]-6-[5-(trifluoromethyl)pyrimidin-2-yl]isoquinolin-1-one]"
15,7.96,"C[C@@H](CCCn1ccc2cc(-c3ncc(N(C)C)cn3)c(F)cc2c1=O)Nc1cn[nH]c(=O)c1C(F)(F)F [Example 92, (S)-6-(5-(dimethylamino)pyrimidin-2-yl)-7-fluoro-2-(4-((6-oxo-5-(trifluoromethyl)-1,6-dihydropyridazin-4-yl)amino)pentyl)isoquinolin-1(2H)-one]"
16,7.34,"C[C@@H](CCCn1ccc2cc(-c3ncc(-c4cc(C(F)(F)F)n(C)n4)cn3)c(F)cc2c1=O)Nc1cn[nH]c(=O)c1C(F)(F)F [Example 93, (S)-7-fluoro-6-(5-(1-methyl-5-(trifluoromethyl)-1H-pyrazol-3-yl)pyrimidin-2-yl)-2-(4-((6-oxo-5-(trifluoromethyl)-1,6-dihydropyridazin-4-yl)amino)pentyl)isoquinolin-1(2H)-one]"
17,7.64,"C[C@@H](CCCn1ccc2cc(-c3ncc4c(n3)CCC4)c(F)cc2c1=O)Nc1cn[nH]c(=O)c1C(F)(F)F [Example 94, (S)-6-(6,7-dihydro-5H-cyclopenta[d]pyrimidin-2-yl)-7-fluoro-2-(4-((6-oxo-5-(trifluoromethyl)-1,6-dihydropyridazin-4-yl)amino)pentyl)isoquinolin-1(2H)-one]"
18,7.01,"Cc1cnc(-c2cc3ncn(CCC[C@H](C)Nc4cn[nH]c(=O)c4C(F)(F)F)c(=O)c3cc2F)nc1 [Example 95, (S)-6-fluoro-7-(5-methylpyrimidin-2-yl)-3-(4-((6-oxo-5-(trifluoromethyl)-1,6-dihydropyridazin-4-yl)amino)pentyl)quinazolin-4(3H)-one]"
19,6.25,"C[C@@H](CCCn1ccc2cc(-c3cc(F)c(N)cn3)c(F)cc2c1=O)Nc1cn[nH]c(=O)c1C(F)(F)F [Example 96, (S)-6-(5-amino-4-fluoropyridin-2-yl)-7-fluoro-2-(4-((6-oxo-5-(trifluoromethyl)-1,6-dihydropyridazin-4-yl)amino)pentyl)isoquinolin-1(2H)-one]"
20,7.17,"C[C@@H](CCCn1ccc2cc(-c3cc(C(F)(F)F)c(N)cn3)c(F)cc2c1=O)Nc1cn[nH]c(=O)c1C(F)(F)F [Example 97, (S)-6-(5-amino-4-(trifluoromethyl)pyridin-2-yl)-7-fluoro-2-(4-((6-oxo-5-(trifluoromethyl)-1,6-dihydropyridazin-4-yl)amino)pentyl)isoquinolin-1(2H)-one]"
21,8.01,"C[C@@H](CCCn1ccc2cc(-c3ncc(Cl)cn3)c(F)cc2c1=O)Nc1cn[nH]c(=O)c1C(F)(F)F [Example 98, (S)-6-(5-chloropyrimidin-2-yl)-7-fluoro-2-(4-((6-oxo-5-(trifluoromethyl)-1,6-dihydropyridazin-4-yl)amino)pentyl)isoquinolin-1(2H)-one]"
22,5.89,"C[C@@H](CCCn1ccc2cc(-c3ncc(N4CC5(COC5)C4)cn3)c(F)cc2c1=O)Nc1cn[nH]c(=O)c1C(F)(F)F [Example 99, (S)-6-(5-(2-oxa-6-azaspiro[3.3]heptan-6-yl)pyrimidin-2-yl)-7-fluoro-2-(4-((6-oxo-5-(trifluoromethyl)-1,6-dihydropyridazin-4-yl)amino)pentyl)isoquinolin-1(2H)-one]"
23,7.90,"C[C@@H](CCCn1ccc2cc(-c3ncc(C#N)c(N)n3)c(F)cc2c1=O)Nc1cn[nH]c(=O)c1C(F)(F)F [Example 101, 4-amino-2-[7-fluoro-1-oxo-2-[(4S)-4-[[6-oxo-5-(trifluoromethyl)-1H-pyridazin-4-yl]amino]pentyl]-6-isoquinolyl]pyrimidine-5-carbonitrile]"
